Each structure is given as a SMILES string. Values after ≈ are worked out from the molar mass of the structure shown.

The conditions of the series: buffer; pH 7.4; 200.0 µM.
Molecule `COCCNC(=S)N1CCN(Cc2cccc(OC)c2)CC1` displayed a kinetic solubility of 42.5 µg/mL (≈ 131 µM). With `[Cl-].c1ccc(Cn2c[n+](Cc3ccccc3)cn2)cc1`, the solubility (kinetic) was over 42.9 µg/mL. Next, `COc1ccc(/C(N)=N/OC(=O)c2cccs2)cc1`: 35.9 µg/mL (≈ 130 µM); `CC(C)CC1NC(=O)N(CC(=O)Nc2cc(S(=O)(=O)N3CCOCC3)ccc2Cl)C1=O` (stereo not given): 8.2 µg/mL (≈ 17.3 µM). Then `COc1ccc(C(=O)Nc2cccc3c2CCCC3)c(OC)c1`, with under 0.7 µg/mL; and `O=C(CCNC(=O)c1ccccc1)NCCc1ccc(Cl)cc1`, with 6.9 µg/mL (≈ 20.9 µM). Molecule `Cn1c(-c2cccs2)[n+](C)c2ccccc21.[Cl-]` had a solubility (kinetic) of over 39.7 µg/mL. Molecule `O=C(CN1C(=O)c2ccccc2S1(=O)=O)NCc1cccs1` registered a kinetic solubility of 22.2 µg/mL (≈ 66 µM). `Cc1cccc2c(=O)oc(-c3ccccc3Cl)nc12` showed a kinetic solubility of under 0.6 µg/mL.

In turn, `O=C(CCCn1cc([N+](=O)[O-])cn1)NCc1ccccc1` came in with a solubility (kinetic) of over 43.2 µg/mL.

The molecule `O=C(Nc1ccc(C(F)(F)F)cn1)Nc1cccs1` came in with a kinetic solubility of 0.8 µg/mL (≈ 2.78 µM).

Regarding `CC(=O)c1c(C)[nH]c(C(=O)Nc2ccccn2)c1C`, the solubility (kinetic) was over 38.6 µg/mL.

Consider `NC(=O)Nc1ccccc1C(=O)Nc1ccc2ccccc2c1`, for which the kinetic solubility amounted to 19.6 µg/mL (≈ 64.2 µM). Then `Cc1ccc2nc(CCc3ccc(N)cc3)[nH]c2c1.Cl`, with over 48.6 µg/mL; and `Cc1ccc(Nc2nc(-c3ccc(F)cc3)cs2)nc1`, with under 0.2 µg/mL; and `C=CCNc1ccc(N2C(=O)CCCC2=O)cc1[N+](=O)[O-]`, with over 43.4 µg/mL. `CCc1cccc2c(C(=O)C(NC(C)CC)c3ccccc3)c[nH]c12` (stereo not given) came in with a kinetic solubility of 42.8 µg/mL (≈ 128 µM). `CCCOc1ccc(C(=O)NCCN2CCOCC2)cc1.Cl` returned a kinetic solubility of over 49.3 µg/mL. Next, `CC1CCC(C(C)C)C(OCC(O)CNC(C)C)C1.Cl` (stereo not given): over 46.2 µg/mL; `CCCn1c(=S)[nH]c2sc3c(c2c1=O)CCCC3`: 1.4 µg/mL (≈ 4.99 µM); `COc1ccc(OC)c2c(=O)cc(C(=O)O)[nH]c12`: 14.6 µg/mL (≈ 58.6 µM). Next, `COc1ccc(Cl)cc1NC(=O)NCc1cccnc1`: over 43.8 µg/mL. Next, `O=C(Nc1ccccc1)c1cc2ccc3ccccc3c2s1`: under 0.6 µg/mL; `CCN1CCOC(CC(=O)Nc2ccc([N+](=O)[O-])cc2)C1=O` (stereo not given): 40.2 µg/mL (≈ 131 µM). `O=C(Nc1ccccc1)c1c2c(nc3ccccc13)CCCC2` yielded a solubility (kinetic) of 0.5 µg/mL (≈ 1.65 µM). `CC12CN3CCN(CC(C3)/C1=N\NC(=O)Nc1cccc(Cl)c1)C2` registered a solubility (kinetic) of over 52.2 µg/mL. Next, `COc1cc(C(=O)Nc2cccc(C(C)=O)c2)cc(OC)c1OC`: over 49.4 µg/mL; `Cc1ccc(C)c(Nc2nc(-c3ccncc3)nc3ccccc23)c1`: under 0.2 µg/mL; `CC(C)(C)[C@]1(O)CCN2C[C@H]3c4ccccc4CCc4cccc(c43)[C@@H]2C1.Cl`: 59.3 µg/mL. Then `O=C(CSc1nc2ccccc2s1)NC1CCCC1`, with 38.6 µg/mL (≈ 132 µM); and `Cn1c(=O)n(C)c2cc(S(=O)(=O)N3CCCCC3)ccc21`, with over 46.4 µg/mL. Next, `CC(NC(=O)COc1ccccc1)C(=O)NCc1ccc(S(N)(=O)=O)cc1` (stereo not given): over 58.7 µg/mL. As to `CSc1ccc(-c2nc(CN(C)C3CCOC3)c(C)o2)cc1` (stereo not given), the solubility (kinetic) is 47.1 µg/mL (≈ 148 µM). Then `CCNC(=O)C(=O)c1c(-c2ccccc2)[nH]c2ccccc12`, with over 43.9 µg/mL; and `O=C(Nc1nc2ccccc2s1)c1c(F)cccc1Cl`, with 0.6 µg/mL (≈ 1.96 µM); and `Cc1ccc(NC2=C(Cl)C(=O)OC2OC(C)C)cc1` (stereo not given), with 34.8 µg/mL (≈ 124 µM). Next, `COc1cccc(C(=O)Nc2ccc3[nH]c(=O)[nH]c3c2)c1OC`: 27.7 µg/mL (≈ 88.4 µM); `COc1ccc(NC(=O)Nc2ccccc2SC)c(OC)c1`: 0.7 µg/mL (≈ 2.2 µM); `CCc1c(C)nc(N2CCN(c3cccc(OC)c3)CC2)[nH]c1=O`: 15.8 µg/mL (≈ 48.1 µM).

Take `CC(C)N(C(=O)Nc1ccc2nccnc2c1)C(C)C`: the solubility (kinetic) turned out to be 2.3 µg/mL (≈ 8.44 µM).

For orientation: kinetic solubility means the concentration staying in solution when a stock, usually in DMSO, is diluted into the medium.

The values above are taken from PubChem BioAssay AID1996.
